From PubChem BioAssay AID179 (DTP/NCI, 2004)
Calls of active or inactive are those of the source.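 Rule for the calls: active = compounds giving half or more protection of infected cells from virus-caused growth loss, again on retest; inactive = the rest.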

Tested on: CEM cells HIV-1 protection, formazan growth assay
Test: NCI AIDS Antiviral Assay
Details: for IC50: measured here: growth of uninfected CEM cells
In short: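 Protection of CEM cells against HIV-1 was scored from cell growth (soluble formazan) across five concentrations, with parallel uninfected cells. Lack of protection may reflect toxicity.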

With `Cc1cn(C2C=CC(COP(=O)(OCC(=O)c3ccccc3)OCC(=O)c3ccccc3)O2)c(=O)[nH]c1=O` (centres undefined) the EC50 was 0.851 µM and the IC50 was 110 µM.
With `CCOC(=O)CCC(NC(=O)c1ccc(NC(OC)c2nc3cc(C(F)(F)F)ccc3nc2-c2ccccc2)cc1)C(=O)OCC` (centres undefined) the EC50 was > 8.13 µM and the IC50 was > 8.13 µM.
`Cc1cc(O)c(/C=N/C(=S)NCCc2ccccc2)c(=O)o1` was tested, and the EC50 was > 200 µM and the IC50 was > 200 µM.
With `O=C1CCCC1CN1CCCCC1` (centres undefined) the outcome was “inactive”.
For `O=C1C=C(N2CC2)C(=O)C=C1N1CC1`, the EC50 was > 0.2 µM and the IC50 was 0.0141 µM.
With `CCCCN=C(NC#N)NCCCC` the EC50 was > 457 µM and the IC50 was 224 µM.
For `COc1cc(C(=O)Nc2nnc(S(N)(=O)=O)s2)cc(OC)c1OC`, the EC50 was > 200 µM and the IC50 was > 200 µM.
In the case of `Cc1ccc(S(=O)(=O)N(C)CC(=O)c2ccccc2)cc1`, the EC50 is reported as > 117 µM and the IC50 is reported as > 117 µM.
With `C=CCNC(=S)/N=C\C(C(=O)OCC)=C(/O)C(=O)OCC` the EC50 was > 200 µM and the IC50 was > 200 µM.
For `COc1ccc(C[C@@H]2CN(C(=O)c3ccccc3)[C@H](Cc3ccc(O)cc3)CN2C(=O)c2ccccc2)cc1Br`, the EC50 was > 200 µM and the IC50 was 126 µM.
In the case of `CC(C)=NNc1cnnc2ccc([N+](=O)[O-])cc12`, the EC50 is reported as > 200 µM and the IC50 is reported as 70.8 µM.
With `COc1nc(C)nc2c1ncn2Cc1ccccc1` the EC50 was > 200 µM and the IC50 was > 200 µM.
`Cc1nc(N)nc2c1CCC(=O)N2` was tested, and the EC50 was > 56.2 µM and the IC50 was > 56.2 µM.
With `O=C1C=C(CCC2=CC(=O)c3ccccc3C2=O)C(=O)c2ccccc21` the EC50 was > 200 µM and the IC50 was 91.2 µM.
With `O=C(ON=C1c2ccccc2C(Br)C(Br)c2ccccc21)c1cc([N+](=O)[O-])cc([N+](=O)[O-])c1` (centres undefined) the EC50 was > 200 µM and the IC50 was 0.851 µM.
With `O=C(/C(C=NC(=S)c1ccncc1)=C(/O)C1=CC=CCC1)c1ccccc1` the outcome was “inactive”.
For `COc1ccc(-c2nnc3n(Cc4ccccc4)c4ccccc4n3c2=O)cc1`, the EC50 was > 200 µM and the IC50 was > 200 µM.
In the case of `COC(=O)C1C2C=CC(C2)N1S(=O)(=O)c1ccccc1` (centres undefined), the EC50 is reported as > 200 µM and the IC50 is reported as > 200 µM.
`COC(=O)C(/C(=N/NC(N)=O)C(=O)Nc1ccc(C)cc1)c1nc2ccc([N+](=O)[O-])cc2[nH]c1=O` (centres undefined) was tested, and the EC50 was > 141 µM and the IC50 was > 141 µM.
For `COC(=O)c1c(C)c2c(c(C)c1O)OC(=O)c1c(C)cc(O)c(C=O)c1O2`, the EC50 was 186 µM and the IC50 was > 200 µM.
In the case of `CCN(CC)CCN1C(=O)c2cccc3cc(OC)cc(c23)C1=O`, the EC50 is reported as > 200 µM and the IC50 is reported as 3.47 µM.
With `S=c1[nH]c(=S)c2sc(=S)n(-c3ccccc3)c2[nH]1` the EC50 was > 115 µM and the IC50 was 56.2 µM.
For `COC(=O)C1CC(C(=O)OC)c2nc3cc(C)c(C)cc3nc21` (centres undefined), the EC50 was > 83.2 µM and the IC50 was > 83.2 µM.
`Cc1ccc(S(=O)(=O)SCC(=O)c2ccc(Br)cc2)cc1` showed an EC50 of 6.92 µM and an IC50 of 93.3 µM.
For `CC(=O)OCC1OC(NC(=S)Nc2nc(-c3ccccc3)cc(-c3cc(Cl)ccc3O)n2)C(OC(C)=O)C(OC(C)=O)C1OC(C)=O` (centres undefined), the EC50 was > 200 µM and the IC50 was 5.13 µM.
`COc1ccc(-n2c(C)nc3ccc(NC4OCC(OC(C)=O)C(OC(C)=O)C4OC(C)=O)cc3c2=O)cc1` (centres undefined) was tested, and the EC50 was > 200 µM and the IC50 was 123 µM.
For `COc1cc(C(C)=O)cc(C(=O)N(C(C)C)C(C)C)c1[Si](C)(C)C`, the EC50 was > 100 µM and the IC50 was > 100 µM.
`O=C(O)/C=C\Sc1ccccc1C(=O)O` was tested, and the EC50 was > 1120 µM and the IC50 was > 1120 µM.
For `O=C1/C(=C/c2cccc([N+](=O)[O-])c2)Sc2scc(-c3ccc([N+](=O)[O-])cc3)[n+]21`, the EC50 was > 200 µM and the IC50 was 38 µM.
`CN(c1ccccc1)C(c1ccccc1)C(O)c1ccccc1` (centres undefined) was tested, and the outcome was “inactive”.
With `CN(C)c1ccc(C(=CC=C2C(=O)NC(=O)NC2=O)c2ccc(N(C)C)cc2)cc1` the EC50 was > 4.9 µM and the IC50 was > 4.9 µM.
With `O=c1cc2ccccc2nn1Cc1cccc(Cl)c1` the EC50 was > 115 µM and the IC50 was 102 µM.
In the case of `CCOP(=O)(OCC)C(c1ccc(F)cc1)N(C(=O)NC(F)(F)F)c1ccc(OC)cc1` (centres undefined), the EC50 is reported as > 200 µM and the IC50 is reported as > 200 µM.
`CC(C)(Oc1ccc(/C=C/C(=O)c2ccc(Cl)cc2)cc1)C(=O)Nc1c(Cl)cccc1Cl` was tested, and the EC50 was > 14.8 µM and the IC50 was > 14.8 µM.
`O=C(Nc1ncnc2c1ncn2C1CC(OC(=O)c2ccc([N+](=O)[O-])cc2)C(COC(=O)c2ccc([N+](=O)[O-])cc2)O1)c1ccccc1` (centres undefined) was tested, and the outcome was “inactive”.
`Cc1cc2occ(-c3ccc(Cl)cc3)c2c(=O)o1` was tested, and the EC50 was > 20 µM and the IC50 was > 20 µM.
In the case of `O=CCCCCCOCc1ccccc1`, the EC50 is reported as > 200 µM and the IC50 is reported as 3.47 µM.
With `NC(=O)CNC(=O)c1ccccc1SC(=O)OCCCCCl` the EC50 was 26.3 µM and the IC50 was > 200 µM.
In the case of `CSc1nc2[nH]ccc2c(=O)[nH]1`, the outcome is reported as “inactive”.
In the case of `S=c1s[nH]c2c1CCC2`, the EC50 is reported as > 107 µM and the IC50 is reported as 77.6 µM.
In the case of `Cc1ccc(S(=O)(=O)n2c3c(c4ccccc42)CCN2C[C@H]([C@H](C)Br)CC[C@@H]32)cc1`, the EC50 is reported as > 200 µM and the IC50 is reported as 42.7 µM.
In the case of `COc1ccc2c(c1)CC1Cc3cc(OC)c(OC)cc3CN1CC2` (centres undefined), the EC50 is reported as > 200 µM and the IC50 is reported as 23.4 µM.
